Measurements reported in patent US20080227797A1, “Pyridopyrimidine Derivatives as Pde4 Inhibitors for the Treatment of Inflammatory and Immune Diseases” (ASTRAZENECA AB, priority 2005, published 2008).

Molecular target: recombinant Human Phosphodiesterase B2 (PDE4B2) (Homo sapiens, UniProt Q07343)
Test: Human Phosphodiesterase B2 Alpha Screen Assay
Format: biochemical
Details: cAMP substrate, Alpha Screen cAMP kit, 60 minutes at room temperature
Outline: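 Recombinant human PDE4B2 preincubated 15 min at RT with compound in 50 mM Tris pH 7.5, 8.3 mM MgCl2, 1.7 mM EGTA, 0.01% Brij35, then reacted with cAMP for 60 min at RT. Stopped with EDTA; AlphaScreen beads with biotinylated cAMP incubated 5 h in the dark before reading. IC50 from curve fitting.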

Sequence of recombinant Human Phosphodiesterase B2 (PDE4B2) (Q07343 1-564 isoform Q07343-2): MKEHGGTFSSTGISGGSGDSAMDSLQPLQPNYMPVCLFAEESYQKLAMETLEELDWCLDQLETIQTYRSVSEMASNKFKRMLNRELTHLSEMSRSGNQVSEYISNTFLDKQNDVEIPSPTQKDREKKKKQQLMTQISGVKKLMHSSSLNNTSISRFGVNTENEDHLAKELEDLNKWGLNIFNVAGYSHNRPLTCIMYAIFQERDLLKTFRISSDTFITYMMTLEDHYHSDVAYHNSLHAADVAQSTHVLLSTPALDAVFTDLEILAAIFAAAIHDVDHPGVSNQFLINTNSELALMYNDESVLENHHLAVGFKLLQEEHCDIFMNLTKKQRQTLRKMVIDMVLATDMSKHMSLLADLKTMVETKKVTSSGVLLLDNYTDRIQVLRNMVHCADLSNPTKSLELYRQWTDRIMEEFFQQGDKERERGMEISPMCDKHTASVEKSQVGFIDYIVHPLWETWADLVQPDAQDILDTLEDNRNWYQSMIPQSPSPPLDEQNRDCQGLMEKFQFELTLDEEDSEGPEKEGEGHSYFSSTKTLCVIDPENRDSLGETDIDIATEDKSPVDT

SMILES | IC50 [nM]
COC(=O)c1cccc(-n2c(=O)n([C@H]3CC[C@@H](NC(=O)C4CCC4)CC3)c(=O)c3cc(F)cnc32)c1 [Example 61, methyl 3-[3-{cis-4-[(cyclobutylcarbonyl)amino]cyclohexyl}-6-fluoro-2,4-dioxo-3,4-dihydropyrido[2,3-d]pyrimidin-1(2H)-yl]benzoate] | 5.2
COC(=O)c1cccc(-n2c(=O)n([C@H]3CC[C@@H](NC(=O)C(C)C)CC3)c(=O)c3cc(F)cnc32)c1 [Example 62, methyl 3-[6-fluoro-3-[cis-4-(isobutyrylamino)cyclohexyl]-2,4-dioxo-3,4-dihydropyrido[2,3-d]pyrimidin-1(2H)-yl]benzoate] | 6.3
COC(=O)c1cccc(-n2c(=O)n([C@H]3CC[C@@H](NC(=O)CC(C)C)CC3)c(=O)c3cc(F)cnc32)c1 [Example 63, methyl 3-[6-fluoro-3-{cis-4-[(3-methylbutanoyl)amino]cyclohexyl}-2,4-dioxo-3,4-dihydropyrido[2,3-d]pyrimidin-1(2H)-yl]benzoate] | 5.7
COC(=O)c1cccc(-n2c(=O)n([C@H]3CC[C@@H](NC(=O)C(C)(C)C)CC3)c(=O)c3cc(F)cnc32)c1 [Example 64, methyl 3-[3-{cis-4-[(2,2-dimethylpropanoyl)amino]cyclohexyl}-6-fluoro-2,4-dioxo-3,4-dihydropyrido[2,3-d]pyrimidin-1(2H)-yl]benzoate] | 4.4
COCC(=O)N[C@H]1CC[C@@H](n2c(=O)c3cc(F)cnc3n(-c3cccc(C(=O)OC)c3)c2=O)CC1 [Example 65, methyl 3-[6-fluoro-3-{cis-4-[(methoxyacetyl)amino]cyclohexyl}-2,4-dioxo-3,4-dihydropyrido[2,3-d]pyrimidin-1(2H)-yl]benzoate] | 11.1
COC(=O)c1cccc(-n2c(=O)n([C@H]3CC[C@@H](NC(=O)c4cccs4)CC3)c(=O)c3cc(F)cnc32)c1 [Example 66, methyl 3-[6-fluoro-2,4-dioxo-3-{cis-4-[(2-thienylcarbonyl)amino]cyclohexyl}-3,4-dihydropyrido[2,3-d]pyrimidin-1(2H)-yl]benzoate] | 4.8
COC(=O)c1cccc(-n2c(=O)n([C@H]3CC[C@@H](NC(C)=O)CC3)c(=O)c3cc(F)cnc32)c1 [Example 67, methyl 3-[3-[cis-4-(acetylamino)cyclohexyl]-6-fluoro-2,4-dioxo-3,4-dihydropyrido[2,3-d]pyrimidin-1(2H)-yl]benzoate] | 21.2
COC(=O)c1cccc(-n2c(=O)n([C@H]3CC[C@@H](NC(=O)c4cc5ccccn5n4)CC3)c(=O)c3cc(F)cnc32)c1 [Example 68, methyl 3-[6-fluoro-2,4-dioxo-3-{cis-4-[(pyrazolo[1,5-a]pyridin-2-ylcarbonyl)amino]cyclohexyl}-3,4-dihydropyrido[2,3-d]pyrimidin-1(2H)-yl]benzoate] | 0.6
COC(=O)c1cccc(-n2c(=O)n([C@H]3CC[C@@H](NC(=O)c4cn5ccccc5n4)CC3)c(=O)c3cc(F)cnc32)c1 [Example 69, methyl 3-[6-fluoro-3-{cis-4-[(imidazo[1,2-a]pyridin-2-ylcarbonyl)amino]cyclohexyl}-2,4-dioxo-3,4-dihydropyrido[2,3-d]pyrimidin-1(2H)-yl]benzoate] | 1
COC(=O)c1cccc(-n2c(=O)n([C@H]3CC[C@@H](NC(=O)C4CC4)CC3)c(=O)c3cc(F)cnc32)c1 [Example 70, methyl 3-[3-{cis-4-[(cyclopropylcarbonyl)amino]cyclohexyl}-6-fluoro-2,4-dioxo-3,4-dihydropyrido[2,3-d]pyrimidin-1(2H)-yl]benzoate] | 6.6
CS(=O)(=O)c1cccc(-n2c(=O)n([C@H]3CC[C@@H](NC(=O)C4CC4)CC3)c(=O)c3cc(F)cnc32)c1 [Example 71, N-{cis-4-[6-fluoro-1-[3-(methylsulfonyl)phenyl]-2,4-dioxo-1,4-dihydropyrido[2,3-d]pyrimidin-3(2H)-yl]cyclohexyl}cyclopropanecarboxamide] | 41.2
Cc1ccc(O)c(C(=O)N[C@H]2CC[C@@H](n3c(=O)c4cc(F)cnc4n(-c4ccc(F)c(F)c4)c3=O)CC2)c1 [Example 72, N-{cis-4-[1-(3,4-difluorophenyl)-6-fluoro-2,4-dioxo-1,4-dihydropyrido[2,3-d]pyrimidin-3(2H)-yl]cyclohexyl}-2-hydroxy-5-methylbenzamide] | 2.3
COC(=O)c1cccc(-n2c(=O)n([C@H]3CC[C@@H](NC(=O)C4CCN(C)CC4)CC3)c(=O)c3cc(F)cnc32)c1 [Example 73, methyl 3-[6-fluoro-3-(cis-4-{[(1-methylpiperidin-4-yl)carbonyl]amino}cyclohexyl)-2,4-dioxo-3,4-dihydropyrido[2,3-d]pyrimidin-1(2H)-yl]benzoate] | 62.6
COC(=O)c1cccc(-n2c(=O)n([C@H]3CC[C@@H](NC(=O)c4ccc(CN(C)C)o4)CC3)c(=O)c3cc(F)cnc32)c1 [Example 74, methyl 3-[3-[cis-4-({5-[(dimethylamino)methyl]-2-furoyl}amino)cyclohexyl]-6-fluoro-2,4-dioxo-3,4-dihydropyrido[2,3-d]pyrimidin-1(2H)-yl]benzoate] | 5.1
COC(=O)c1cccc(-n2c(=O)n([C@H]3CC[C@@H](NC(=O)C4CCCCC4)CC3)c(=O)c3cc(F)cnc32)c1 [Example 75, methyl 3-[3-{cis-4-[(cyclohexylcarbonyl)amino]cyclohexyl}-6-fluoro-2,4-dioxo-3,4-dihydropyrido[2,3-d]pyrimidin-1(2H)-yl]benzoate] | 2.6
O=C(c1n[nH]c2ccccc12)N1CCC(n2c(=O)c3cc(F)cnc3n(-c3ccc(F)c(F)c3)c2=O)CC1 [Example 76, 1-(3,4-difluorophenyl)-6-fluoro-3-[1-(1H-indazol-3-ylcarbonyl)piperidin-4-yl]pyrido[2,3-d]pyrimidine-2,4(1H,3H)-dione] | 9.5
O=C([C@H](O)c1ccccc1)N1CCC(n2c(=O)c3cc(F)cnc3n(-c3ccc(F)c(F)c3)c2=O)CC1 [Example 77, 1-(3,4-difluorophenyl)-6-fluoro-3-{1-[(2R)-2-hydroxy-2-phenylacetyl]piperidin-4-yl}pyrido[2,3-d]pyrimidine-2,4(1H,3H)-dione] | 147
O=C(c1cc(CO)ccc1O)N1CCC(n2c(=O)c3cc(F)cnc3n(-c3ccc(F)c(F)c3)c2=O)CC1 [Example 78, 1-(3,4-difluorophenyl)-6-fluoro-3-{1-[2-hydroxy-5-(hydroxymethyl)benzoyl]piperidin-4-yl}pyrido[2,3-d]pyrimidine-2,4(1H,3H)-dione] | 293
O=C(c1n[nH]c2ccccc12)N1CC[C@@H](n2c(=O)c3cc(F)cnc3n(-c3ccc(F)c(F)c3)c2=O)C1 [Example 79, 1-(3,4-difluorophenyl)-6-fluoro-3-[(3R)-1-(1H-indazol-3-ylcarbonyl)pyrrolidin-3-yl]pyrido[2,3-d]pyrimidine-2,4(1H,3H)-dione] | 15.4
O=C([C@H](O)c1ccccc1)N1CC[C@@H](n2c(=O)c3cc(F)cnc3n(-c3ccc(F)c(F)c3)c2=O)C1 [Example 80, 1-(3,4-difluorophenyl)-6-fluoro-3-{(3R)-1-[(2R)-2-hydroxy-2-phenylacetyl]pyrrolidin-3-yl}pyrido[2,3-d]pyrimidine-2,4(1H,3H)-dione] | 73.3
O=C([C@H](O)C1CCCCC1)N1CC[C@@H](n2c(=O)c3cc(F)cnc3n(-c3ccc(F)c(F)c3)c2=O)C1 [Example 81, 3-{(3R)-1-[(2R)-2-cyclohexyl-2-hydroxyacetyl]pyrrolidin-3-yl}-1-(3,4-difluorophenyl)-6-fluoropyrido[2,3-d]pyrimidine-2,4(1H,3H)-dione] | 8.1
O=C(c1cc(CO)ccc1O)N1CC[C@@H](n2c(=O)c3cc(F)cnc3n(-c3ccc(F)c(F)c3)c2=O)C1 [Example 82, 1-(3,4-difluorophenyl)-6-fluoro-3-{(3R)-1-[2-hydroxy-5-(hydroxymethyl)benzoyl]pyrrolidin-3-yl}pyrido[2,3-d]pyrimidine-2,4(1H,3H)-dione] | 71.8
O=C(c1n[nH]c2ccccc12)N1CC[C@H](n2c(=O)c3cc(F)cnc3n(-c3ccc(F)c(F)c3)c2=O)C1 [Example 83, 1-(3,4-difluorophenyl)-6-fluoro-3-[(3S)-1-(1H-indazol-3-ylcarbonyl)pyrrolidin-3-yl]pyrido[2,3-d]pyrimidine-2,4(1H,3H)-dione] | 9.2
O=C([C@H](O)c1ccccc1)N1CC[C@H](n2c(=O)c3cc(F)cnc3n(-c3ccc(F)c(F)c3)c2=O)C1 [Example 84, 1-(3,4-difluorophenyl)-6-fluoro-3-{(3S)-1-[(2R)-2-hydroxy-2-phenylacetyl]pyrrolidin-3-yl}pyrido[2,3-d]pyrimidine-2,4(1H,3H)-dione] | 57.3
O=C(N[C@H]1CC[C@@H](n2c(=O)c3cc(F)cnc3n(-c3ccc(F)c(F)c3)c2=O)CC1)c1ccc2[nH]ccc2c1 [Example 85, N-{cis-4-[1-(3,4-difluorophenyl)-6-fluoro-2,4-dioxo-1,4-dihydropyrido[2,3-d]pyrimidin-3(2H)-yl]cyclohexyl}-1H-indole-5-carboxamide] | 0.996
O=C(N[C@H]1CC[C@@H](n2c(=O)c3cc(F)cnc3n(-c3ccc(F)c(F)c3)c2=O)CC1)c1cccc([N+](=O)[O-])c1 [Example 86, N-{cis-4-[1-(3,4-difluorophenyl)-6-fluoro-2,4-dioxo-1,4-dihydropyrido[2,3-d]pyrimidin-3(2H)-yl]cyclohexyl}-3-nitrobenzamide] | 4.13
O=C(N[C@H]1CC[C@@H](n2c(=O)c3cc(F)cnc3n(-c3ccc(F)c(F)c3)c2=O)CC1)c1cc2ccccc2[nH]1 [Example 87, N-{cis-4-[1-(3,4-difluorophenyl)-6-fluoro-2,4-dioxo-1,4-dihydropyrido[2,3-d]pyrimidin-3(2H)-yl]cyclohexyl}-1H-indole-2-carboxamide] | 0.885
O=C(N[C@H]1CC[C@@H](n2c(=O)c3cc(F)cnc3n(-c3ccc(F)c(F)c3)c2=O)CC1)c1ccc2[nH]cnc2c1 [Example 88, N-{cis-4-[1-(3,4-difluorophenyl)-6-fluoro-2,4-dioxo-1,4-dihydropyrido[2,3-d]pyrimidin-3(2H)-yl]cyclohexyl}-1H-benzimidazole-5-carboxamide] | 3.38
